Laboratory results from publication PMC5118696, “Identification of inhibitors that dually target the new permeability pathway and dihydroorotate dehydrogenase in the blood stage of Plasmodium falciparum” (Scientific Reports, 2016).
Where two headings read alike, the source gives them in different places.

What was measured:
[1] = molecular target: T1, PfDHODH (dihydroorotate dehydrogenase) (Plasmodium falciparum, UniProt Q08210); assay: DCIP reduction enzyme assay with recombinant PfDHODH; IC50 extrapolated, inhibition did not reach […]; type: biochemical
T1 construct: gene PFF0160c; amino acids 169–569

[2] = test system: Hyp1-NLuc Plasmodium falciparum-infected erythrocytes (new permeability pathway, NPP); assay: microbe, parasite or virus in culture; conditions: Erythrocyte, 0.33 h, read-out: % of control remaining
[3] = test system: Hyp1-NLuc Plasmodium falciparum-infected erythrocytes (new permeability pathway, NPP); assay: microbe, parasite or virus in culture; conditions: Erythrocyte, 0.33 h, read-out: Mean RLU at 28 min (As % of DMSO control)

T1 sequence (Q08210 169-569): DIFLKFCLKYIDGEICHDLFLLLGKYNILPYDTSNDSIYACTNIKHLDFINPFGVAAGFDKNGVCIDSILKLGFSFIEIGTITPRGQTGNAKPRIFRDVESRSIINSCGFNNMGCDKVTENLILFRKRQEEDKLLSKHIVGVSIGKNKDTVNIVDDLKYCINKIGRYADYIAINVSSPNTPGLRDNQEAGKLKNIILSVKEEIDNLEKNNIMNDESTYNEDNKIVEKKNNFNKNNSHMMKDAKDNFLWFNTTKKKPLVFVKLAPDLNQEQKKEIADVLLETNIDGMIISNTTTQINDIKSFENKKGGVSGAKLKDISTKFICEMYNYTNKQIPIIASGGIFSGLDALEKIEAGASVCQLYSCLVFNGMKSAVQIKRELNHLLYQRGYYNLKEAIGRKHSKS

Compound: Cc1ccc(CSCc2ccc(C(=O)NC3CC3)o2)cc1 [MMV007571]
- IC50 [1]: ~158 µM
- activity at 2 µM [2]: 26%
- activity at 2 µM [3]: 22%

Compound: COc1cccc(C(=O)NC(c2ccc(C)cc2)c2cc(Cl)c3cccnc3c2O)c1 (centres unmarked) [MMV665969]
- activity at 2 µM [2]: 106%
- activity at 2 µM [3]: 101%

Compound: CCOC(=O)C1=C(C)N=c2sc(=Cc3cc(Cl)ccc3O)c(=O)n2C1c1ccc(OC)cc1 (centres unmarked) [MMV665971]
- activity at 2 µM [2]: 102%
- activity at 2 µM [3]: 101%

Compound: O=C(Cc1ccccc1)NC(c1ccc(Cl)cc1)c1c(O)ccc2ccccc12 (centres unmarked) [MMV665972]
- activity at 2 µM [2]: 69.4%
- activity at 2 µM [3]: 68.8%

Compound: CCOC(=O)c1cn(CC)c2cc(N(C)CCc3ccc(OC)c(OC)c3)c(F)cc2c1=O [MMV665977]
- activity at 2 µM [2]: 87.8%
- activity at 2 µM [3]: 106%

Compound: FC(F)(F)c1cccc(CNC2CCN(CCc3ccccc3)CC2)c1 [MMV665979]
- activity at 2 µM [2]: 112%
- activity at 2 µM [3]: 104%

Compound: OC1CCCCC1C1(NC(=S)Nc2ccccc2)CCCCC1 (centres unmarked) [MMV665980]
- activity at 2 µM [2]: 101%
- activity at 2 µM [3]: 101%

Compound: CCCCCCc1cc(O)c2c3c(c(=O)oc2c1)CCC(C)C3 (centres unmarked) [MMV665987]
- activity at 2 µM [2]: 94.7%
- activity at 2 µM [3]: 89.8%

Compound: Cc1nc2ccccc2c(O)c1CC=C(Cl)Cl [MMV665994]
- activity at 2 µM [2]: 101%
- activity at 2 µM [3]: 96.6%

Compound: CN1c2ccccc2N(C)C1c1ccc2c(c1)OCO2 [MMV666009]
- activity at 2 µM [2]: 114%
- activity at 2 µM [3]: 104%

Compound: Cc1ccc(OCCCCCCNCCO)c(C)c1 [MMV666020]
- activity at 2 µM [2]: 97.1%
- activity at 2 µM [3]: 97%

Compound: Cc1ccc(-c2cc3c(nn2)-c2ccccc2C3=O)cc1 [MMV666021]
- activity at 2 µM [2]: 99.7%
- activity at 2 µM [3]: 104%

Compound: COc1ccc(C(=O)NC(c2ccccc2Cl)c2cc(Cl)c3cccnc3c2O)cc1 (centres unmarked) [MMV666022]
- activity at 2 µM [2]: 113%
- activity at 2 µM [3]: 104%

Compound: c1ccc(Cn2c(N=Nc3c(Nc4ccccc4)ccc4ccccc34)nc3ccccc32)cc1 [MMV666023]
- activity at 2 µM [2]: 101%
- activity at 2 µM [3]: 102%

Compound: OC(Cn1nnc2ccccc21)Cn1c2ccc(Br)cc2c2cc(Br)ccc21 (centres unmarked) [MMV666025]
- activity at 2 µM [2]: 105%
- activity at 2 µM [3]: 99.5%

Compound: COc1ccc(-c2cc3c(nn2)-c2ccccc2C3=O)cc1 [MMV666026]
- activity at 2 µM [2]: 108%
- activity at 2 µM [3]: 98.8%

Compound: COc1ccc(C(=O)NC(c2ccc(Cl)cc2Cl)c2cc(Cl)c3cccnc3c2O)cc1 (centres unmarked) [MMV666054]
- activity at 2 µM [2]: 106%
- activity at 2 µM [3]: 101%

Compound: O=C(Nc1ccc(Cl)cc1C(=O)Nc1ccncc1)c1ccc(Cl)cc1Cl [MMV666057]
- activity at 2 µM [2]: 119%
- activity at 2 µM [3]: 105%

Compound: COc1ccc(CN2CCCC(C(=O)c3ccc(C(F)(F)F)cc3)C2)c(O)c1 (centres unmarked) [MMV666060]
- activity at 2 µM [2]: 114%
- activity at 2 µM [3]: 103%

Compound: COc1cccc(O)c1CN1CCC2(CCCN(Cc3ccc(F)cc3)C2)C1 (centres unmarked) [MMV666061]
- activity at 2 µM [2]: 126%
- activity at 2 µM [3]: 111%

Compound: Cc1ccc(N2C(=O)C3C(C2=O)C2(c4ccccc4)C(=O)C3(c3ccccc3)C(c3ccccc3)=C2c2ccccc2)cc1 (centres unmarked) [MMV666062]
- activity at 2 µM [2]: 97.6%
- activity at 2 µM [3]: 106%

Compound: COc1ccc(CNC2CCN(c3ccc(NC(=O)c4cccc(Cl)c4)cc3)CC2)cc1OC [MMV666067]
- activity at 2 µM [2]: 111%
- activity at 2 µM [3]: 101%

Compound: COc1ccc(CCN2CCC(CN(C)Cc3cnn(-c4ccccc4)c3)CC2)cc1 [MMV666069]
- activity at 2 µM [2]: 105%
- activity at 2 µM [3]: 102%

Compound: O=C(NC1CCCC1)c1ccc(N2CCC(NCc3cccc(C(F)(F)F)c3)CC2)cc1 [MMV666070]
- activity at 2 µM [2]: 123%
- activity at 2 µM [3]: 111%

Compound: Cc1ccc(CN2CCC(C(=O)Nc3ccc(-c4cc5ccccc5[nH]4)cc3)CC2)o1 [MMV666071]
- activity at 2 µM [2]: 101%
- activity at 2 µM [3]: 94.8%

Compound: COCCNC(=O)c1ccc(OC2CCN(Cc3ccc(F)c(F)c3)CC2)c(Cl)c1 [MMV666072]
- activity at 2 µM [2]: 115%
- activity at 2 µM [3]: 103%

Compound: COc1ccc(C2N(C)c3ccccc3N2C)cc1 [MMV666075]
- activity at 2 µM [2]: 123%
- activity at 2 µM [3]: 109%

Compound: Cc1ccc2cc3c(N)c4c(C)ccc(C)c4nc3nc2c1 [MMV666079]
- activity at 2 µM [2]: 104%
- activity at 2 µM [3]: 96%

Compound: O=C(NC(c1ccccc1)c1ccc2cccnc2c1O)c1ccccc1 (centres unmarked) [MMV666080]
- activity at 2 µM [2]: 114%
- activity at 2 µM [3]: 104%

Compound: CCCc1c(C)nc2ccccc2c1O [MMV666081]
- activity at 2 µM [2]: 115%
- activity at 2 µM [3]: 105%

Compound: CCCC(c1nnnn1C1CCCCC1)N1CCN(C(=O)c2ccco2)CC1 (centres unmarked) [MMV666093]
- activity at 2 µM [2]: 113%
- activity at 2 µM [3]: 104%

Compound: CCCc1c(C)nc2ccc(Br)cc2c1O [MMV666095]
- activity at 2 µM [2]: 113%
- activity at 2 µM [3]: 104%

Compound: COc1ccc(C2=C(c3ccc(OC)cc3)C3(c4ccccc4)C(=O)C2(c2ccccc2)C2C(=O)N(c4ccc(C)cc4)C(=O)C23)cc1 (centres unmarked) [MMV666101]
- activity at 2 µM [2]: 107%
- activity at 2 µM [3]: 108%

Compound: CN(C)c1ccc(-c2nc3cc(N)ccc3[nH]2)cc1 [MMV666102]
- activity at 2 µM [2]: 90%
- activity at 2 µM [3]: 98.7%

Compound: CCn1c(SCC(=O)Nc2cc(C(F)(F)F)ccc2Cl)nc2ccccc2c1=O [MMV666103]
- activity at 2 µM [2]: 113%
- activity at 2 µM [3]: 100%

Compound: COCCN(C(=O)Cc1cccs1)C(C(=O)NCc1ccc(OC)cc1)c1ccc(C(C)C)cc1 (centres unmarked) [MMV666105]
- activity at 2 µM [2]: 113%
- activity at 2 µM [3]: 100%

Compound: O=C(NC1CCCCC1)C(c1cccs1)N(CCc1ccccc1)C(=O)c1ccco1 (centres unmarked) [MMV666106]
- activity at 2 µM [2]: 105%
- activity at 2 µM [3]: 96.6%

Compound: O=C(CCc1ccco1)NC1CCN(CC2(c3ccc(Cl)cc3)CCC2)CC1 [MMV666108]
- activity at 2 µM [2]: 114%
- activity at 2 µM [3]: 100%

Compound: CCOC(=O)C1(Cc2ccccc2)CCN(Cc2cccc(OC)c2O)CC1 [MMV666109]
- activity at 2 µM [2]: 97.9%
- activity at 2 µM [3]: 93.9%

Compound: C=C(C)CCC(C)N1CCC(N2CCC(C(=O)NCCc3ccccc3)CC2)CC1 (centres unmarked) [MMV666110]
- activity at 2 µM [2]: 116%
- activity at 2 µM [3]: 108%

Compound: Oc1ccccc1CN1CCC2(CCCN(Cc3ccccc3F)C2)C1 (centres unmarked) [MMV666116]
- activity at 2 µM [2]: 106%
- activity at 2 µM [3]: 100%

Compound: CC(C)(C)c1ccc(C(=O)Nc2c3c(nn2-c2cccc(Cl)c2)CSC3)cc1 [MMV666123]
- activity at 2 µM [2]: 108%
- activity at 2 µM [3]: 104%

Compound: CC(=O)c1ccc(NC(=O)CSc2nc(-c3ccccc3Cl)ns2)cc1 [MMV666124]
- activity at 2 µM [2]: 69.6%
- activity at 2 µM [3]: 96.8%

Compound: CC1=C(CC(=O)c2cccc([N+](=O)[O-])c2)C(=O)c2ccccc2C1=O [MMV666125]
- activity at 2 µM [2]: 101%
- activity at 2 µM [3]: 96.1%

Compound: CSC1=NC(=Nc2c(C)cccc2C)C2(CCC(C(C)(C)C)CC2)N1c1ccc(Cl)cc1 (centres unmarked) [MMV666596]
- activity at 2 µM [2]: 107%
- activity at 2 µM [3]: 106%

Compound: CCCCCCc1cc2cc(-c3nc4ccccc4[nH]3)c(=Nc3ccccc3C)oc2cc1O [MMV666597]
- activity at 2 µM [2]: 111%
- activity at 2 µM [3]: 102%

Compound: O=c1nc(C=Cc2ccc(Br)cc2)oc2ccccc12 [MMV666599]
- activity at 2 µM [2]: 94.3%
- activity at 2 µM [3]: 102%

Compound: CCOC(=O)c1c(C)n(-c2ccc(Cl)cc2)c2ccc(OC(=O)C=Cc3ccccc3)cc12 [MMV666600]
- activity at 2 µM [2]: 100%
- activity at 2 µM [3]: 101%

Compound: CCOC(=O)C1=C(c2ccccc2)N=c2sc(=Cc3cc(C)n(-c4ccc(F)cc4)c3C)c(=O)n2C1c1cccc(OC)c1OC (centres unmarked) [MMV666601]
- activity at 2 µM [2]: 103%
- activity at 2 µM [3]: 105%

Compound: CCOC(=O)C1=C(C)N=c2sc(=Cc3ccccc3O)c(=O)n2C1c1ccc(OC)c2ccccc12 (centres unmarked) [MMV666604]
- activity at 2 µM [2]: 117%
- activity at 2 µM [3]: 110%

Compound: O=[N+]([O-])c1ccc(C=NNc2nc3ccccc3[nH]2)cc1 [MMV666607]
- activity at 2 µM [2]: 102%
- activity at 2 µM [3]: 103%

Compound: COc1ccccc1C(=O)ON=C(N)Cc1cccc2ccccc12 [MMV666686]
- activity at 2 µM [2]: 96.4%
- activity at 2 µM [3]: 102%

Compound: COc1cc(C(=O)ON=C(N)Cc2cccc3ccccc23)cc(OC)c1OC [MMV666687]
- activity at 2 µM [2]: 104%
- activity at 2 µM [3]: 106%

Compound: Cc1cc(C=C2SC(=Nc3ccccc3)N(C3CCCC3)C2=O)c(C)n1-c1ccc(Cl)cc1 [MMV666688]
- activity at 2 µM [2]: 98.7%
- activity at 2 µM [3]: 99.9%

Compound: COc1ccc(Nc2nc(NN=Cc3ccc(O)cc3)nc(Nc3ccc([N+](=O)[O-])cc3)n2)cc1 [MMV666689]
- activity at 2 µM [2]: 93.1%
- activity at 2 µM [3]: 95.2%

Compound: COc1ccc(C=C2SC(=N)N(c3ccccc3OC)C2=O)cc1 [MMV666691]
- activity at 2 µM [2]: 26.4%
- activity at 2 µM [3]: 61.9%

Compound: CCCCCCc1cc2cc(-c3csc(C=Cc4ccccc4)n3)c(=O)oc2cc1O [MMV666692]
- activity at 2 µM [2]: 99.2%
- activity at 2 µM [3]: 102%

Compound: COc1cccc(C=Cc2nc(=O)c3ccccc3o2)c1OC [MMV666693]
- activity at 2 µM [2]: 29.9%
- activity at 2 µM [3]: 75%

Compound: CCOc1ccc(N2C(N)=NC(N)=NC2(C)C)cc1 [MMV667486]
- activity at 2 µM [2]: 98%
- activity at 2 µM [3]: 98.6%

Compound: CN(C)c1ccc(N2C(N)=NC(N)=NC2(C)C)cc1 [MMV667487]
- activity at 2 µM [2]: 98.1%
- activity at 2 µM [3]: 97%

Compound: COc1ccc(CCn2c(=N)c(C(=O)NCc3cccnc3)cc3c(=O)n4cccc(C)c4nc32)cc1 [MMV667488]
- activity at 2 µM [2]: 95.6%
- activity at 2 µM [3]: 105%

Compound: COC(=O)c1ccc(Cl)c2c1C1C=CCC1C(c1cccc3ccccc13)N2 (centres unmarked) [MMV667489]
- activity at 2 µM [2]: 100%
- activity at 2 µM [3]: 103%

Compound: COc1ccc(C2c3ccc4ccccc4c3Oc3ncn(CCCn4ccnc4)c(=N)c32)cc1OC (centres unmarked) [MMV667490]
- activity at 2 µM [2]: 98.4%
- activity at 2 µM [3]: 102%

Compound: COc1ccc(C2c3ccc4ccccc4c3Oc3ncn(CCCN(C)C)c(=N)c32)cc1 (centres unmarked) [MMV667491]
- activity at 2 µM [2]: 69.1%
- activity at 2 µM [3]: 87.3%

Compound: CN(N=O)C1=C(NC2CCCCC2)C(=O)c2ccccc2C1=O [MMV667492]
- activity at 2 µM [2]: 90.8%
- activity at 2 µM [3]: 103%
